# Source: patent US6992215B2, “Thiol-based NAALADase inhibitors” (Guildford Pharmaceuticals Inc., priority 2001, dated 2006)
# Key:
# [1] = system: TGF-β1; experiment: Effect of NAALADase inhibition on TGF-β1 in in vitro ischemia model; format: cell-based; details: ischemic cell cultures, FIG. 1
# Protocol: (§1) A NAALADase inhibitor, Compound C, was added to ischemia cell cultures to determine its effect on TGF-β levels during stroke.
# [2] = system: chronic constrictive injury-induced rats; experiment: Neuropathic pain in CCI model (sciatic nerve ligation, thermal hyperalgesia); format: in vivo; details: 50 mg/kg i.p. daily starting 10 days post surgery
# Protocol: Sciatic nerve ligation, consisting of 4 ligatures tied loosely around the sciatic nerve at 1 mm intervals proximal to the nerve trifurcation, was performed on rats. […] The rats were habituated to a Hargreaves apparatus. An infrared heat source was directed onto the dorsal surface of each rat's hindpaws and the time taken for the rat to withdraw its paws was noted. The difference in scores between the latency of the response for the paw on the operated side versus the paw on the unoperated control side was determined.
# The rats were treated with either Compound 49 (10, 1 or 0.1 mg/kg) or a vehicle for 15 days after sciatic nerve ligation. Thermal pain responses were measured at days 0, 1, 5, 8, 11 and 15. The differences in scores for the rats treated with a vehicle and the rats treated with Compound 49 are graphically presented in FIGS. 13-15.
# The rats were treated with either Compound 5 (50, 30, 10, 3, 1 or 0.3 mg/kg) or a vehicle for 12 (or 15) days after sciatic nerve ligation. Thermal pain responses were measured at days 0, 1, 5, 8 and 12 (and 15). The differences in scores for the rats treated with a vehicle and the rats treated with Compound 5 are graphically presented in FIGS. 17-22.
# The rats received either Compound C (50 mg/kg i.p. daily) or a vehicle starting 10 days post surgery. […] Normal (unoperated) rats had approximately equal latencies for both paws. This effect was significant starting at 11 days of drug treatment and persisted through to the end of the study (for 21 days of daily dosing).
# [3] = system: TGF-β1; experiment: TGF-β1 levels in MCAO rats assessed by microdialysis; format: in vivo; details: during both occlusion and reperfusion, FIG. 6
# [4] = system: ischemic cell cultures; experiment: Neuroprotective effect in in vitro ischemia model with growth factor neutralizing antibodies; format: cell-based
# Protocol: TGF-β neutralizing antibodies were then added to the ischemic cell cultures.
# [5] = system: TGF-β2; experiment: Effect of NAALADase inhibition on TGF-β2 in in vitro ischemia model; format: cell-based; details: ischemic cell cultures, FIG. 2
# Protocol: as §1
# [6] = system: rats subjected to middle cerebral artery occlusion; experiment: Neuroprotective effect in MCAO rats with TGF-β neutralizing antibodies; format: in vivo; details: FIG. 5
# Source text: The effect of TGF-β neutralizing antibodies on the neuroprotective effect of Compound C was also studied in rats following MCAO.
# One of ordinary skill in the art can appreciate that the regulation of TGF-β's by NAALADase inhibitors may have implications not only in stroke, but also in other diseases, disorders and conditions including, without limitation, neurological diseases, psychiatric diseases, demyelinating diseases, prostate cancer, inflammation, diabetes and angiogenesis.
structure (smiles),measurement,setting,value
"O=C(O)CCC(CP(=O)(O)O)C(=O)O (centres unmarked) [Compound C, 2-(phosphonomethyl)pentanedioic acid]",TGF-β1 concentrations,[1],increased concentrations
same,time of drug treatment from which the effect was significant,[2],11 days
same,difference scores between the two paws,[2]; FIG. 8,dramatically normalized
same,TGF-β1 levels,[3],significant rise
same,neuroprotective effect in the presence of TGF-β neutralizing antibodies,[4]; FIG. 3,blocked
same,neuroprotective effect in the presence of FGF antibody,[4]; FIG. 4,did not block
same,TGF-β2 concentrations,[5],increased concentrations
same,neuroprotective effect in vivo in the presence of TGF-β neutralizing antibodies,[6],significantly attenuated
